Data: patent US20090216117A1, “NOVEL METHOD OF USING TRIACETIN AND AUXILIARY AGENT FOR ULTRASONIC DIAGNOSTIC EXAMINATION” (SHINSHU UNIVERSITY, priority 2005, published 2009)
“Also recorded” adds a separate entry of the source.

Key:
[1] = Dissolution of triacetin in water; assay type: physicochemical; conditions: ordinary temperature
From the text: If the auxiliary agent for examination in ultrasonic imaging diagnosis is used in the state of an emulsion, the oil-water interface will reflect ultrasound and affect its propagation. […] For instance, triacetin described in the present invention can be dissolved in water in an amount of about 7% at ordinary temperature without forming an emulsion and this concentration is sufficient for suppressing gastric motility.

[2] = Test 1: viscosity comparison with Brookfield viscometer; assay type: physicochemical
Experimental: Using water (ion-exchanged water), an aqueous solution of triacetin, and an aqueous solution of sodium alginate which is a typical viscosity enhancing polysaccharide (KIMICA Corporation, Grade: IL-2), viscosity comparison was made. Viscosity was measured with a Brookfield viscometer (product of TOKIMEC INC., Model BM).

Beagles [3] = test: Test 2: Pylorus occlusion test (gastric emptying, Evans blue recovery from duodenum); assay type: in vivo; conditions: for suppression of quantitative gastric emptying in comparison with physiological saline: 50 mL test fluid into stomach; for percent emptied: after 50 minutes, almost all physiological saline emptied by about 30 minutes
Experimental: To 10 mL of triacetin (Wako Pure Chemical Industries, Ltd.), 40 mL of water was added to make a total volume of 50 mL, thereby making test fluid A.
Ten milliliters of olive oil (Wako Pure Chemical Industries, Ltd.) and 10 mL of propylene glycol were mixed and water was added to make a total volume of 50 mL, thereby making test fluid B.
Half a gram of stearic acid (Wako Pure Chemical Industries, Ltd.) and 20 mL of propylene glycol were mixed and water was added to make a total volume of 50 mL, thereby making test fluid C.
Beagles each weighing about 10 kg were given general anesthesia with an injection of Nembutal (Dainippon Pharmaceutical Co., Ltd.) and following middle incision, tubes were inserted into the body of stomach and the duodenum as shown in FIG. 8 and with each tube being passed subcutaneously through the flank to the back, the dogs received a preliminary invasive operation for an experiment under an unanesthetized condition.
Starting six days after the operation when there were no longer the effects of anesthesia and those of the operative invasion and the general condition had recovered, the study of the sample fluids of interest was started. To be more specific, it is well known that the gastric emptying capability is suppressed under an anesthetized condition, so in the Example under consideration, in order to eliminate that effect and also to determine data for a more normal state, an experiment was conducted under a chronic unanesthetized condition.
To each test fluid, 5 mg of Evans blue (Wako Pure Chemical Industries, Ltd.) was added and 50 mL of the mixture was injected into the stomach of each beagle through the tube indicated by 1 in FIG. 8. Similarly, a tube was placed in the duodenum and the test fluid emptied from the stomach was recovered through the tube indicated by 2 in FIG. 8. At given time intervals, the emptied test fluid was recovered by suction (for one minute) through the tube left in place in the duodenum and the Evans blue contained in it was measured for absorbance (DU R640 SPECTRO PHOTOMETER, product of Beckman Inc.) at a wavelength of 605 nm, to thereby measure the concentration of Evans blue in the suctioned fluid; the amount of recovery was used to determine the gastric emptying rate.

Beagles [4] = test: Test 3: Measurement of gastric contractile motion by strain gage; assay type: in vivo
Experimental: Two hundred microliters of triacetin (Wako Pure Chemical Industries, Ltd.) was dissolved in distilled water to make a volume of 20 mL, thereby making test fluid D.
Four milliliters of olive oil (Wako Pure Chemical Industries, Ltd.) was dissolved in distilled water to make a volume of 20 mL, thereby making test fluid E.
Twenty milliliters of distilled water was used as control fluid F.
In order to measure muscular contraction with the strain gage, the submucosa was stretched so that the surface of the mucous membrane would not be incised and the strain gage was buried in the submucosa and sutured thereto, with the wound of incision being closed by a suture.
The tube and the strain gage were subcutaneously guided to the outside of the body from the flank to the back and the dogs received a preliminary invasive operation for an experiment under an unanesthetized condition.
Starting six days after the operation when there were no longer the effects of anesthesia and those of the operative invasion and the general condition had recovered, the study of the sample fluids of interest was started. […]
Note that signals from the strain gage were amplified (VC-11, NIHON KOHDEN) and then AD converted, with the resulting digital data being analyzed with Origin Version 6.5 (OriginLab Corporation). […]

SMILES	amount that can be dissolved in water without forming an emulsion [1]	Viscosity ([2]; 0.2% aqueous solution) [mPa · s]	Viscosity ([2]; 1.0% aqueous solution) [mPa · s]	Viscosity ([2]; 5.0% aqueous solution) [mPa · s]	viscosity enhancement as compared with sodium alginate ([2]; aqueous solutions)	time at which the emptied amount peaked (Beagles [3]; 50 mL test fluid A into stomach, physiological saline peaked at about 5 minutes) [min]	pylorus occluding effect (Beagles [3]; 50 mL test fluid injected into stomach, unanesthetized beagles, physiological saline as comparison)	suppression of quantitative gastric emptying in comparison with physiological saline (Beagles [3])	percent emptied (Beagles [3])	change in amplitude and frequency of contractions (contractile motion of the stomach) (Beagles [4]; 20 μL/kg injected into stomach in phase III, fasted unanesthetized beagles)	duration of the suppression of contractile motion after injection (Beagles [4]; 20 μL/kg, change occurred immediately after the injection)
CC(=O)OCC(COC(C)=O)OC(C)=O [Triacetin, triacetin]	about 7%	10.1	10.8	16.7	considerably less effective in viscosity enhancement	10 to 20	markedly effective in occluding the pylorus	obviously suppressed	about 5%	obvious suppression of the contractile motion; also recorded: decreased both the amplitude and frequency of contractions	about three
CCCCCCCCCCCCCCCCCC(=O)O [stearic acid, reference compound]								obvious suppression	about 10%		
